Experimental findings from patent publication US20010041733A1, “Heterocyclic ester and amide hair growth compositions and uses” (GPI NIL Holdings, Inc., priority 1998, published 2001) are described below.

Assay [1] concerns C57 black 6 mice. As to the kind of experiment: In vivo hair generation test, Experiment A. The following applies: 30 μM topical in 20% propylene glycol, 3 applications, after six weeks. The source says:
Care was taken not to nick or cause abrasion to the underlaying dermal layers. The animals were in anagen growth phase, as indicated by the pinkish color of the skin. […] Hair growth was quantitated by the percent of shaved area covered by new hair growth during this time period.

For assay [2], the target named is FKBP12 (Homo sapiens, UniProt P62942). As to the kind of experiment: Ki test procedure: inhibition of peptidyl-prolyl isomerase (rotamase) activity, chymotrypsin-coupled assay. The following applies: substrate N-succinyl-Ala-Ala-Pro-Phe-p-nitroanilide, read-out: Ki (apparent). In kind it is biochemical. From the text:
The compounds used in the inventive methods and pharmaceutical compositions have an affinity for the inhibition of the prolyl peptidyl cis-trans isomerase activity of FKBP may be measured as an indicator of this affinity.
Inhibition of the peptidyl-prolyl isomerase (rotamase) activity of the compounds used in the inventive methods and pharmaceutical compositions can be evaluated by known methods described in the literature (Harding et al., Nature, […], 341:758-760; Holt et al. J. Am. Chem. Soc., 115:9923-9938). These values are obtained as apparent K1's and are presented for representative compounds in TABLE III.
The cis-trans isomerization of an alanine-proline bond in a model substrate, N-succinyl-Ala-Ala-Pro-Phe-p-nitroanilide, is monitored spectrophotometrically in a chymotrypsin-coupled assay, which releases para-nitroanilide from the trans form of the substrate. The inhibition of this reaction caused by the addition of different concentrations of inhibitor is determined, and the data is analyzed as a change in first-order rate constant as a function of inhibitor concentration to yield the apparerent K1, values. […]
The absorbance at 390 nm versus time is monitored for 90 seconds using a spectrophotometer and the rate constants are determined from the absorbance versus time data files.

Assay [3] concerns C57 black 6 mice. As to the kind of experiment: In vivo hair generation test, Experiment B. The following applies: one micromole per milliliter topical, three times per week, 14 days after initiation of treatment. On the procedure:
Care was taken not to nick or cause abrasion to the underlying dermal layers. The animals were in a […] growth phase when shaved. […] The animals were treated three times per week, and hair growth was evaluated 14 days after initiation of treatment.

SMILES strings stand for the structures.

Chain of FKBP12 (P62942 whole entry): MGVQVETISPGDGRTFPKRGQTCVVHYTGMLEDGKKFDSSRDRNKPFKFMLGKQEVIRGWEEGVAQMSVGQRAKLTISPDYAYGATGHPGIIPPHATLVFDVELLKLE

Consider `CCC(C)(C)C(=O)C(=O)N1CCC[C@H]1C(=O)OCCCc1cccnc1` [GPI 1046], for which the “hair regrowth in the shaved area” value in assay [1] is “essentially complete hair regrowth”. In the case of `CCC(C)(C)C(=O)C(=O)N1CSC[C@@H]1C(=O)OCCCc1ccccc1` [Compound 1, 3-phenyl-1-propyl (2S)-1-(3,3-dimethyl-1,2-dioxopentyl)-2-(4-thiazolidine)carboxylate], in assay [2], the Ki amounted to 215 nM. Regarding `CCC(C)(C)C(=O)C(=O)N1CCS[C@@H]1C(=O)OCCCc1cccnc1` [GPI 1572], the “hair growth (relative hair growth index, FIG. 5)” value in assay [3] is “dramatic hair growth”. Turning to `CCC(C)(C)C(=O)C(=O)N1CSC[C@@H]1C(=O)OCCCc1cccnc1` [Compound 2, 3-(3-pyridyl)-1-propyl (2S)-1-(3,3-dimethyl-1,2-dioxopentyl)-2-(4-thiazolidine) carboxylate], the Ki in assay [2] was 638 nM.
